# Laboratory results: patent US20200016159A1, “N3-CYCLICALLY SUBSTITUTED THIENOURACILS AND USE THEREOF” (Bayer Aktiengesellschaft, priority 2016, published 2020)
# Biological target: T1, human adenosine A2b receptor (Homo sapiens, UniProt P29275)
# T1 sequence (P29275 1-332): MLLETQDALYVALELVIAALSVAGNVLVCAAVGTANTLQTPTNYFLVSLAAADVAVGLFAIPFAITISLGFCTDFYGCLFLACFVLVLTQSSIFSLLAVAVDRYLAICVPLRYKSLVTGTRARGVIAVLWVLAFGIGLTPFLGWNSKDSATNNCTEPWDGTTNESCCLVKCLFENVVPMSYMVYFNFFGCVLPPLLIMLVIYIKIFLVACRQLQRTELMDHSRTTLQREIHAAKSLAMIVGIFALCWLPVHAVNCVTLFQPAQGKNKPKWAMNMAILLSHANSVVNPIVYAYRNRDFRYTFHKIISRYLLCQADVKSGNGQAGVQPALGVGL
# Assay: Cellular in vitro reporter gene test for A2b receptor activity (antagonism of NECA)
# Assay type: cell-based
# Design: expressed in transfected cells; host or cells: CHO-K1 (Chinese hamster ovary) with CRE-luciferase reporter
# Conditions: recombinant CHO-K1 cells, CRE-luciferase reporter, co-incubation with EC50 concentration of NECA, 3 hours
# Procedure, shortened: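 Antagonism measured as block of NECA-induced, cAMP/CRE-dependent luciferase expression in recombinant A2b CHO-K1 cells. NECA used at the EC50 set in a pre-experiment on each test day; luminescence detected after 3 h. Reported as IC50, partly averaged and rounded to two significant figures.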
row,IC50,Compound
1,40 nM,"COCCn1c(=O)n(C2CC2)c(=O)c2c(C)c(CN3CCNC(=O)C3=O)sc21 [Example 27, 3-Cyclopropyl-6-[(2,3-dioxopiperazin-1-yl)methyl]-1-(2-methoxyethyl)-5-methylthieno[2,3-d]pyrimidine-2,4(1H,3H)-dione]"
2,110 nM,"Cc1c(CN2CCNC(=O)C2=O)sc2c1c(=O)n(C1CC1)c(=O)n2CC1CCCO1 (racemic) [Example 45, 3-Cyclopropyl-6-[(2,3-dioxopiperazin-1-yl)methyl]-5-methyl-1-(tetrahydrofuran-2-ylmethyl)thieno[2,3-d]pyrimidine-2,4(1H,3H)-dione]"
3,130 nM,"COCCn1c(=O)n([C@H]2C[C@@H](OC)C2)c(=O)c2c(C)c(CN3CCNC3=NC(=O)OC)sc21 [Example 161, Methyl [1-{[3-(cis-3-methoxycyclobutyl)-1-(2-methoxyethyl)-5-methyl-2,4-dioxo-1,2,3,4-tetrahydrothieno[2,3-d]pyrimidin-6-yl]methyl}imidazolidin-2-ylidene]carbamate]"
4,140 nM,"COCCn1c(=O)n(C2CCCC2)c(=O)c2c(C)c(CN3CCNC(=O)C3=O)sc21 [Example 192, 3-Cyclopentyl-6-[(2,3-dioxopiperazin-1-yl)methyl]-1-(2-methoxyethyl)-5-methylthieno[2,3-d]pyrimidine-2,4(1H,3H)-dione]"
5,2.8 nM,"Cc1c(CN2CCNC2=O)sc2c1c(=O)n(C1CC3(CCC3)C1)c(=O)n2CCC(F)(F)F [Example 174, 5-Methyl-6-[(2-oxoimidazolidin-1-yl)methyl]-3-(spiro[3.3]hept-2-yl)-1-(3,3,3-trifluoropropyl)thieno[2,3-d]pyrimidine-2,4(1H,3H)-dione]"
6,44 nM,"Cc1c(CN2CCNC(=O)C2=O)sc2c1c(=O)n(C1CC1)c(=O)n2CCCF [Example 8, 3-Cyclopropyl-6-[(2,3-dioxopiperazin-1-yl)methyl]-1-(3-fluoropropyl)-5-methylthieno[2,3-d]pyrimidine-2,4(1H,3H)-dione]"
7,10 nM,"COCCn1c(=O)n(C2CC3(CCC3)C2)c(=O)c2c(C)c(CN3CCNC3=O)sc21 [Example 179, 1-(2-Methoxyethyl)-5-methyl-6-[(2-oxoimidazolidin-1-yl)methyl]-3-(spiro[3.3]hept-2-yl)thieno[2,3-d]pyrimidine-2,4(1H,3H)-dione]"
8,77 nM,"CCOCCn1c(=O)n(C2(C)CC2)c(=O)c2c(C)c(CN3CCNC3=O)sc21 [Example 77, 1-(2-Ethoxyethyl)-5-methyl-3-(1-methylcyclopropyl)-6-[(2-oxoimidazolidin-1-yl)methyl]thieno[2,3-d]pyrimidine-2,4(1H,3H)-dione]"
9,83 nM,"COCCn1c(=O)n(C2CC(C)(C)C2)c(=O)c2c(C)c(Cn3nc[nH]c3=O)sc21 [Example 173, 3-(3,3-Dimethylcyclobutyl)-1-(2-methoxyethyl)-5-methyl-6-[(5-oxo-4,5-dihydro-1H-1,2,4-triazol-1-yl)methyl]thieno[2,3-d]pyrimidine-2,4(1H,3H)-dione]"
10,19 nM,"COCCn1c(=O)n(C2CC2)c(=O)c2c(C)c(Cn3cc[nH]c3=O)sc21 [Example 28, 3-Cyclopropyl-1-(2-methoxyethyl)-5-methyl-6-[(2-oxo-2,3-dihydro-1H-imidazol-1-yl)methyl]thieno[2,3-d]pyrimidine-2,4(1H,3H)-dione]"
11,19 nM,"Cc1c(CN2CCNC2=O)sc2c1c(=O)n(C1CC1C)c(=O)n2CC1CCOC1 (single isomer, unassigned) [Example 291, 5-Methyl-3-(2-methylcyclopropyl)-6-[(2-oxoimidazolidin-1-yl)methyl]-1-(tetrahydrofuran-3-ylmethyl)thieno[2,3-d]pyrimidine-2,4(1H,3H)-dione]"
12,1.1 nM,"Cc1c(CN2CCNC2=O)sc2c1c(=O)n(C1CC1C)c(=O)n2CCOC(F)(F)F (single isomer, unassigned) [Example 263, 5-Methyl-3-(2-methylcyclopropyl)-6-[(2-oxoimidazolidin-1-yl)methyl]-1-[2-(trifluoromethoxy)ethyl]thieno[2,3-d]pyrimidine-2,4(1H,3H)-dione]"
13,6.9 nM,"Cc1c(CN2CCNC2=O)sc2c1c(=O)n(C1CCCC1)c(=O)n2CCC(F)(F)F [Example 184, 3-Cyclopentyl-5-methyl-6-[(2-oxoimidazolidin-1-yl)methyl]-1-(3,3,3-trifluoropropyl)thieno[2,3-d]pyrimidine-2,4(1H,3H)-dione]"

# The remaining lines, values behind:
row,Compound,IC50
1,"Cc1c(CN2CCNC2=O)sc2c1c(=O)n(C1CC1C)c(=O)n2CC1CCOC1 (single isomer, unassigned) [Example 293, 5-Methyl-3-(2-methylcyclopropyl)-6-[(2-oxoimidazolidin-1-yl)methyl]-1-(tetrahydrofuran-3-ylmethyl)thieno[2,3-d]pyrimidine-2,4(1H,3H)-dione]",12 nM
2,"Cc1c(Cn2nc[nH]c2=O)sc2c1c(=O)n(C1(C)CC1)c(=O)n2CC1CC1(F)F (single isomer, unassigned) [Example 67, 1-[(2,2-Difluorocyclopropyl)methyl]-5-methyl-3-(1-methylcyclopropyl)-6-[(5-oxo-4,5-dihydro-1H-1,2,4-triazol-1-yl)methyl]thieno[2,3-d]pyrimidine-2,4(1H,3H)-dione]",54 nM
3,"CCC1(n2c(=O)c3c(C)c(Cn4nc[nH]c4=O)sc3n(CCOC)c2=O)CC1 [Example 109, 3-(1-Ethylcyclopropyl)-1-(2-methoxyethyl)-5-methyl-6-[(5-oxo-4,5-dihydro-H-1,2,4-triazol-1-yl)methyl]thieno[2,3-d]pyrimidine-2,4(1H,3H)-dione]",640 nM
4,"Cc1c(CN2CCNC2=O)sc2c1c(=O)n(C1CC1(C)C)c(=O)n2CCC(F)(F)F (single isomer, unassigned) [Example 101, 3-(2,2-Dimethylcyclopropyl)-5-methyl-6-[(2-oxoimidazolidin-1-yl)methyl]-1-(3,3,3-trifluoropropyl)thieno[2,3-d]pyrimidine-2,4(1H,3H)-dione]",32 nM
5,"Cc1c(Cn2cc[nH]c2=O)sc2c1c(=O)n(C1CC1C)c(=O)n2CCOC(F)(F)F (single isomer, unassigned) [Example 271, 5-Methyl-3-(2-methylcyclopropyl)-6-[(2-oxo-2,3-dihydro-1H-imidazol-1-yl)methyl]-1-[2-(trifluoromethoxy)ethyl]thieno[2,3-d]pyrimidine-2,4(1H,3H)-dione]",1.4 nM
6,"COC(=O)N=C1NCCN1Cc1sc2c(c1C)c(=O)n([C@H]1C[C@@H](OC)C1)c(=O)n2CCC(F)(F)F [Example 156, Methyl [1-{[3-(cis-3-methoxycyclobutyl)-5-methyl-2,4-dioxo-1-(3,3,3-trifluoropropyl)-1,2,3,4-tetrahydrothieno[2,3-d]pyrimidin-6-yl]methyl}imidazolidin-2-ylidene]carbamate]",18 nM
7,"CCCCn1c(=O)n(C2(C)CC2)c(=O)c2c(C)c(Cn3nc[nH]c3=O)sc21 [Example 55, 1-Butyl-5-methyl-3-(1-methylcyclopropyl)-6-[(5-oxo-4,5-dihydro-1H-1,2,4-triaiazol-1-yl)methyl]thieno[2,3-d]pyrimidine-2,4(1H,3H)-dione]",49 nM
8,"Cc1c(Cn2nc[nH]c2=O)sc2c1c(=O)n(C1CC1)c(=O)n2CC1CC1(F)F (single isomer, unassigned; enantiomer 1) [Example 21, 3-Cyclopropyl-1-[(2,2-difluorocyclopropyl)methyl]-5-methyl-6-[(5-oxo-4,5-dihydro-1H-1,2,4-triazol-1-yl)methyl]thieno[2,3-d]pyrimidine-2,4(1H,3H)-dione (enantiomer 1)]",53 nM
9,"Cc1c(CN2CCNC2=O)sc2c1c(=O)n(C1(C)CC1)c(=O)n2CC1CC1(F)F (single isomer, unassigned) [Example 65, 1-[(2,2-Difluorocyclopropyl)methyl]-5-methyl-3-(1-methylcyclopropyl)-6-[(2-oxoimidazolidin-1-yl)methyl]thieno[2,3-d]pyrimidine-2,4(1H,3H)-dione]",36 nM
10,"Cc1c(CN2CCNC2=O)sc2c1c(=O)n(C1CC1C)c(=O)n2CC1CC(F)(F)C1 (racemic) [Example 252, 1-[(3,3-Difluorocyclobutyl)methyl]-5-methyl-3-(2-methylcyclopropyl)-6-[(2-oxoimidazolidin-1-yl)methyl]thieno[2,3-d]pyrimidine-2,4(1H,3H)-dione]",1.4 nM
11,"CCn1c(=O)n([C@H]2C[C@@H]2C)c(=O)c2c(C)c(Cn3nc[nH]c3=O)sc21 [Example 316, 1-Ethyl-5-methyl-3-[(1S,2S)-2-methylcyclopropyl]-6-[(5-oxo-4,5-dihydro-1H-1,2,4-triazol-1-yl)methyl]thieno[2,3-d]pyrimidine-2,4(1H,3H)-dione]",25 nM
12,"Cc1c(CN2CCNC2=O)sc2c1c(=O)n(C1(C)CC1)c(=O)n2C[C@@H]1CCCO1 [Example 82, 5-Methyl-3-(1-methylcyclopropyl)-6-[(2-oxoimidazolidin-1-yl)methyl]-1-[(2S)-tetrahydrofuran-2-ylmethyl]thieno[2,3-d]pyrimidine-2,4(1H,3H)-dione]",77 nM
13,"CCCCn1c(=O)n([C@H]2C[C@@H]2C)c(=O)c2c(C)c(Cn3nc[nH]c3=O)sc21 [Example 318, 1-Butyl-5-methyl-3-[(1S,2S)-2-methylcyclopropyl]-6-[(5-oxo-4,5-dihydro-H-1,2,4-triazol-1-yl)methyl]thieno[2,3-d]pyrimidine-2,4(1H,3H)-dione]",12 nM
